Results as given in patent US20260355165A1, “2,3,4,9-TETRAHYDRO-1H-PYRIDO[3,4-B]INDOLE DERIVATIVES AS ESTROGEN RECEPTOR MODULATORS FOR THE TREATMENT OF CANCER” (Olema Pharmaceuticals, Inc., priority 2022, published 2026).

What follows are compounds tested against T1, estrogen receptor (Homo sapiens, UniProt P03372) (assay: AP assay (alkaline phosphatase activity in ECC-1 cells), agonist mode (absence of E2) and antagonist mode (presence of 500 pM E2)). Conditions: 3 days, AP activity normalized to 500 pM E2 alone, agonist and antagonist mode combined.
T1 construct: endogenous in cells; host or cells: ECC-1 cells
T1 sequence (P03372 1-595): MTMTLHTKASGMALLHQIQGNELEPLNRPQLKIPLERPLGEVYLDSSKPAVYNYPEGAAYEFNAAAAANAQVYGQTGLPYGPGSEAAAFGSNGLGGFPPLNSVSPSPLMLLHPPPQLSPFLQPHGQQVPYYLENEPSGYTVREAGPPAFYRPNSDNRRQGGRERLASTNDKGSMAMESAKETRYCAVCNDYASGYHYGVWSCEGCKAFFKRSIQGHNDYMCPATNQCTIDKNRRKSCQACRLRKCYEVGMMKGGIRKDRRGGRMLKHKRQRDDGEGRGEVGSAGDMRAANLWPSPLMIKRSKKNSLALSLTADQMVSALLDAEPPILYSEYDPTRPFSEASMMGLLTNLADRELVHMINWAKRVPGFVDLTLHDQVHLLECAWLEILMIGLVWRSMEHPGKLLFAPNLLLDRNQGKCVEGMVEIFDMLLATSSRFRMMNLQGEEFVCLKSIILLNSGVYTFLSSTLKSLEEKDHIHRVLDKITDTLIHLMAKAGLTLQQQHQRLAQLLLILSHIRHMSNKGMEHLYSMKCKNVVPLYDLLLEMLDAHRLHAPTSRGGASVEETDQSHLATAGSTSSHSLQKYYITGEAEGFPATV
Type: cell-based
Procedure: ECC-1 cells were trypsinized and resuspended in hormone-depleted media and plated at a density of 15 k cells per well into a 96-well plate for at least 4 hours. Cells were treated with test compounds in the absence of E2 (for agonist mode) or in the presence of 500 pM E2 (for antagonist mode) for 3 days and plates were subsequently frozen at −80 °C. Thawed plates were incubated with a chromogenic substrate of AP, p-nitrophenyl phosphate (Thermo Fisher Scientific), for 40 minutes at 42 °C, and absorbances were read at 405 nm. AP activity was normalized to the activity of 500 pM E2 alone.
The compound numbers correspond to the compound numbers of Table 1 and 2. Compounds having an activity designated as “+” provided estrogen receptor agonism having (i) at least 80% increase in the E2-normalized signal in the AP assay (agonist mode) and (ii) no more than 80% reduction in the E2-normalized signal in the AP assay (antagonist mode). Compounds having an activity designated as “++” provided estrogen receptor antagonism having (i) between 10% and 80% increase in the E2-normalized signal in the AP assay (agonist mode) and (ii) between 10% and 80% reduction in the E2-normalized signal in the AP assay (antagonist mode).

SMILES	Activity (estrogen receptor modulation, e.g., agonism and antagonism)
CCCN1CC(n2ncc3cc([C@@H]4c5[nH]c6ccccc6c5C[C@@H](C)N4CC(F)(F)CO)ccc32)C1 (racemic) [Compound I-105, 2,2-difluoro-3-[rac-(1R,3R)-3-methyl-1-[1-(1-propylazetidin-3-yl)indazol-5-yl]-1,3,4,9-tetrahydropyrido[3,4-b]indol-2-yl]propan-1-ol]	++ (estrogen receptor antagonism having (i) between 10% and 80% increase in the E2-normalized signal in the AP assay (agonist mode) and (ii) between 10% and 80% reduction in the E2-normalized signal in the AP assay (antagonist mode))
C[C@@H]1Cc2c([nH]c3ccccc23)[C@@H](c2ccc3c(cnn3C3CN(CCCF)C3)c2)N1CC(F)(F)CO (racemic) [Compound I-106, 2,2-difluoro-3-[rac-(1R,3R)-1-[1-[1-(3-fluoropropyl)azetidin-3-yl]indazol-5-yl]-3-methyl-1,3,4,9-tetrahydropyrido[3,4-b]indol-2-yl]propan-1-ol]	++ (estrogen receptor antagonism having (i) between 10% and 80% increase in the E2-normalized signal in the AP assay (agonist mode) and (ii) between 10% and 80% reduction in the E2-normalized signal in the AP assay (antagonist mode))
CCN1CC(n2cc3cc([C@@H]4c5[nH]c6ccccc6c5C[C@@H](C)N4CC(F)(F)CO)ccc3n2)C1 (racemic) [Compound I-107, 2,2-difluoro-3-[rac-(1R,3R)-1-[2-(1-ethylazetidin-3-yl)indazol-5-yl]-3-methyl-1,3,4,9-tetrahydropyrido[3,4-b]indol-2-yl]propan-1-ol]	+ (estrogen receptor agonism having (i) at least 80% increase in the E2-normalized signal in the AP assay (agonist mode) and (ii) no more than 80% reduction in the E2-normalized signal in the AP assay (antagonist mode))
CCCN1CC(n2cc3cc([C@@H]4c5[nH]c6ccccc6c5C[C@@H](C)N4CC(F)(F)CO)ccc3n2)C1 (racemic) [Compound I-108, 2,2-difluoro-3-[rac-(1R,3R)-3-methyl-1-[2-(1-propylazetidin-3-yl)indazol-5-yl]-1,3,4,9-tetrahydropyrido[3,4-b]indol-2-yl]propan-1-ol]	+ (estrogen receptor agonism having (i) at least 80% increase in the E2-normalized signal in the AP assay (agonist mode) and (ii) no more than 80% reduction in the E2-normalized signal in the AP assay (antagonist mode))
C[C@@H]1Cc2c([nH]c3ccccc23)[C@@H](c2c[nH]c3cc(CO)ccc23)N1CC(C)(C)F [Compound I-1, [3-[(1R,3R)-2-(2-fluoro-2-methyl-propyl)-3-methyl-1,3,4,9-tetrahydropyrido[3,4-b]indol-1-yl]-1H-indol-6-yl]methanol]	+ (estrogen receptor agonism having (i) at least 80% increase in the E2-normalized signal in the AP assay (agonist mode) and (ii) no more than 80% reduction in the E2-normalized signal in the AP assay (antagonist mode))
C[C@@H]1Cc2c([nH]c3ccccc23)[C@@H](c2n[nH]c3cc(CO)ccc23)N1CC(C)(C)F [Compound I-2, [3-[(1S,3R)-2-(2-fluoro-2-methyl-propyl)-3-methyl-1,3,4,9-tetrahydropyrido[3,4-b]indol-1-yl]-1H-indazol-6-yl]methanol]	+ (estrogen receptor agonism having (i) at least 80% increase in the E2-normalized signal in the AP assay (agonist mode) and (ii) no more than 80% reduction in the E2-normalized signal in the AP assay (antagonist mode))
C[C@@H]1Cc2c([nH]c3ccccc23)[C@@H](c2c[nH]c3cc(C(=O)O)ccc23)N1CC(C)(C)F [Compound I-3, 3-[(1R,3R)-2-(2-fluoro-2-methyl-propyl)-3-methyl-1,3,4,9-tetrahydropyrido[3,4-b]indol-1-yl]-1H-indole-6-carboxylic acid]	+ (estrogen receptor agonism having (i) at least 80% increase in the E2-normalized signal in the AP assay (agonist mode) and (ii) no more than 80% reduction in the E2-normalized signal in the AP assay (antagonist mode))
C[C@@H]1Cc2c([nH]c3ccccc23)[C@@H](c2n[nH]c3cc(C(=O)O)ccc23)N1CC(C)(C)F [Compound I-4, 3-[(1S,3R)-2-(2-fluoro-2-methyl-propyl)-3-methyl-1,3,4,9-tetrahydropyrido[3,4-b]indol-1-yl]-1H-indazole-6-carboxylic acid]	+ (estrogen receptor agonism having (i) at least 80% increase in the E2-normalized signal in the AP assay (agonist mode) and (ii) no more than 80% reduction in the E2-normalized signal in the AP assay (antagonist mode))
C[C@@H]1Cc2c([nH]c3ccccc23)[C@@H](c2c[nH]c3cc(CN4CC(CF)C4)ccc23)N1CC(C)(C)F [Compound I-5, (1R,3R)-1-[6-[[3-(fluoromethyl)azetidin-1-yl]methyl]-1H-indol-3-yl]-2-(2-fluoro-2-methyl-propyl)-3-methyl-1,3,4,9-tetrahydropyrido[3,4-b]indole]	++ (estrogen receptor antagonism having (i) between 10% and 80% increase in the E2-normalized signal in the AP assay (agonist mode) and (ii) between 10% and 80% reduction in the E2-normalized signal in the AP assay (antagonist mode))
CC1CN(Cc2ccc3c([C@@H]4c5[nH]c6ccccc6c5C[C@@H](C)N4CC(C)(C)F)c[nH]c3c2)C1 [Compound I-6, (1R,3R)-2-(2-fluoro-2-methyl-propyl)-3-methyl-1-[6-[(3-methylazetidin-1-yl)methyl]-1H-indol-3-yl]-1,3,4,9-tetrahydropyrido[3,4-b]indole]	++ (estrogen receptor antagonism having (i) between 10% and 80% increase in the E2-normalized signal in the AP assay (agonist mode) and (ii) between 10% and 80% reduction in the E2-normalized signal in the AP assay (antagonist mode))
CCCN(C)Cc1ccc2c([C@@H]3c4[nH]c5ccccc5c4C[C@@H](C)N3CC(C)(C)F)c[nH]c2c1 [Compound I-7, N-[[3-[(1R,3R)-2-(2-fluoro-2-methyl-propyl)-3-methyl-1,3,4,9-tetrahydropyrido[3,4-b]indol-1-yl]-1H-indol-6-yl]methyl]-N-methyl-propan-1-amine]	+ (estrogen receptor agonism having (i) at least 80% increase in the E2-normalized signal in the AP assay (agonist mode) and (ii) no more than 80% reduction in the E2-normalized signal in the AP assay (antagonist mode))
C[C@@H]1Cc2c([nH]c3ccccc23)[C@@H](c2c[nH]c3cc(CNCCCF)ccc23)N1CC(C)(C)F [Compound I-8, 3-fluoro-N-[[3-[(1R,3R)-2-(2-fluoro-2-methyl-propyl)-3-methyl-1,3,4,9-tetrahydropyrido[3,4-b]indol-1-yl]-1H-indol-6-yl]methyl]propan-1-amine]	+ (estrogen receptor agonism having (i) at least 80% increase in the E2-normalized signal in the AP assay (agonist mode) and (ii) no more than 80% reduction in the E2-normalized signal in the AP assay (antagonist mode))
C[C@@H]1Cc2c([nH]c3ccccc23)[C@@H](c2c[nH]c3cc(CN(C)CCCF)ccc23)N1CC(C)(C)F [Compound I-9, 3-fluoro-N-[[3-[(1R,3R)-2-(2-fluoro-2-methyl-propyl)-3-methyl-1,3,4,9-tetrahydropyrido[3,4-b]indol-1-yl]-1H-indol-6-yl]methyl]-N-methyl-propan-1-amine]	+ (estrogen receptor agonism having (i) at least 80% increase in the E2-normalized signal in the AP assay (agonist mode) and (ii) no more than 80% reduction in the E2-normalized signal in the AP assay (antagonist mode))
C[C@@H]1Cc2c([nH]c3ccccc23)[C@@H](c2n[nH]c3cc(CN4CC(CF)C4)ccc23)N1CC(C)(C)F [Compound I-10, (1S,3R)-1-[6-[[3-(fluoromethyl)azetidin-1-yl]methyl]-1H-indazol-3-yl]-2-(2-fluoro-2-methyl-propyl)-3-methyl-1,3,4,9-tetrahydropyrido[3,4-b]indole]	+++ (estrogen receptor antagonism (i) with pIC50 greater than 7.5 and at least a 10% reduction in the E2-normalized signal in the AP assay (antagonist mode); and (ii) no more than 10% increase in E2-normalized signal in the AP assay (agonist mode))
